In patent US5587490A, “Method of inactivation of viral and bacterial blood contaminants” (Credit Managers Association of California, priority 1993, dated 1996):
Like-named read-outs stand apart in the source and are kept apart here.

Assays:
phi 6 phage [1] = test: UVA inactivation of phi 6 in packed red cells; assay type: cell-based
Protocol: Units of packed red cells were transferred to Stericon™ red cell freezing bags and the hematocrits were adjusted to 60% with PBS. […] The samples were mixed continuously during UVA exposure on an orbital shaker. The final viral titer in the sample was determined by the plaque method. In vitro biochemical and biophysical properties of treated red cells were monitored for 7 day following the treatment.
The viral inactivation kinetics in red cells is dependent on the intensity of the UVA light source. The data in Table 4 below indicate that the time required to achieve 6 logs of viral reduction varies with the intensity of the UVA light source used.

phi 6 bacteriophage = test: UV inactivation of phi 6 in platelet preparations; assay type: cell-based; details: for log reduction at 30 µg/mL: Bacteriophage sp., Platelet, light or radiation study, 10 min
Protocol: (§1) Human platelet concentrates are mixed with phi 6 bacteriophage, with or without sensitizer, then exposed to U.V. light. Cell quality assays after treatment include morphology score conducted by visual inspection using a light microscope (using a Kunicki scoring system), hypotonic shock response (HSR), aggregation response induced by addition of ADP measured in an aggregometer, and cell number count.
(§2) 1. Soft spin platelet unit at 1000 rpm for 5 min to remove RBC.
(§3) 2. Dilute concentrated platelets with spun autologous plasma to obtain a conc. of 500×10^6 cells/ml.
(§4) 3. Add 5×10^6 of .phi.6 to the platelet suspension and mix gently.
(§5) 4. Add sensitizer to the platelet suspension and incubate for 15 min while protecting from light. Control samples have PBS added.
(§6) 5. Pipet 2 ml aliquots into small plastic petri dishes and irradiate with UV while rotating samples at 100 rpm on a shaker. Irradiate samples without cover.
(§7) 6. Transfer irradiated samples to 15 ml plastic centrifuge tubes.
(§8) 7. Determine morphology, HSR, ADP, Viral inactivation, cell count.
To test the viral inactivation efficiency of brominated sensitizers, platelet preparations (2 mL, PRP) were spiked with .phi.6 phage and brominated psoralen (8B) and non-brominated psoralen(8C) were added to obtain final sensitizer concentration of 0.1 mg/mL. The samples were exposed to UVA light in a home made reactor consisting of 4 UVA lamps for the indicated time periods. The petri dishes containing samples were mixed on an orbital shaker during UVA exposure. The UVA light intensity at the sample position was measured at 3.3 mW/cm^2. The residual viral titer after each time point was measured by plaque method The viral reduction values are illustrated in FIG. 26.
Single unit platelet concentrates were obtained 24 hours after collection from certified blood banks. […] The viral inactivation values and in vitro properties of platelet concentrates were monitored for 2 days after the treatment.

[2] = tested on: Salmonella typhimurium TA1537; test: Ames mutagenicity plate incorporation assay, TA1537; assay type: cell-based; details: average of duplicate plates
[3] = tested on: Salmonella typhimurium TA1538; test: Ames mutagenicity plate incorporation assay, TA1538; assay type: cell-based; details: average of duplicate plates
[4] = tested on: Salmonella typhimurium TA98; test: Ames mutagenicity plate incorporation assay, TA98; assay type: cell-based; details: average of duplicate plates
platelets [5] = test: Platelet cell count after UV treatment; assay type: cell-based, human; details: Treated, UVA 10 min
Protocol: (§9) Single unit platelet concentrates were obtained 24 hours after collection from certified blood banks. The platelet were subjected to soft spin to remove residual RBC and about 6 logs of .phi.6 phage and sensitizer 8B were added in PBS solution to obtain 0.03 mg/mL final sensitizer concentration. The samples were transferred to Stericon™ polyolefin bag (which transmits 60% of UVA light) and irradiated from top (3.6 mW/cm^2) and bottom (3.4 mW/cm^2) in a home made reactor for 10 min. The bags were continuously mixed on extended glass platform attached to orbital shaker. The viral inactivation values and in vitro properties of platelet concentrates were monitored for 2 days after the treatment.

platelets [6] = assay type: cell-based, human
Protocol: as §1, §2, §3, §4, §5, §6, §7, §8
The vital inactivation values and in vitro properties of platelets subjected to viral inactivation treatment using various derivatives of psoralen are summarized in Table 1.
as §9

[7] = tested on: Salmonella typhimurium TA100; test: Ames mutagenicity plate incorporation assay, TA100; assay type: cell-based; details: average of duplicate plates
phi 6 phage [8] = test: UV inactivation of phi 6 in human plasma or fetal bovine serum; assay type: cell-based; details: light or radiation study, 0.5 h; Fetal bovine serum, 0.03 mg/mL, UVA 30 min. (8.4 J/cm^2); read-out: Viral Reduction (log), phi 6
Protocol: (§10) Viral inactivation in FBS was carried out in 100 mL serum samples in 225 cm^2 tissue culture flask in the presence of sensitizer 8B (0.03 mg/mL). The sample was exposed to UVA light from top (3.6 mW/cm^2) and bottom (3.4 mW/cm^2) while continuously mixing on an orbital shaker for 30 min. (8.4 J/cm^2). Human plasma was irradiated in a Pyrex glass photolysis cell in the presence of sensitizer 8 (0.1 mg/mL) for 5 min. Inactivation of various bacteriophages were carried out using brominated psoralens in combination with UVA light. The results in Table 5 below clearly indicate that 5-7 logs of viral reduction was obtained with various phage (enveloped and non-enveloped) in human plasma fractions and fetal bovine serum products.

salmonella mutants = test: Standard Ames mutagenicity test, overall outcome; assay type: cell-based, Salmonella typhimurium; details: 0.6 mg/mL; in words
platelet concentrates = test: pH of platelet concentrates after UV treatment; assay type: cell-based, human; details: Treated, UVA 10 min
Protocol: as §9

bacterial phage λ = test: UV inactivation of lambda phage in plasma or fetal bovine serum; assay type: cell-based; details: Escherichia phage Lambda, light or radiation study, 0.5 h; Fetal bovine serum, 0.03 mg/mL, UVA 30 min. (8.4 J/cm^2); read-out: Viral Reduction (log), λ
Protocol: A stock solution of bacterial phage λ is added to plasma to obtain final titre of 1.2×10^8 PFU/ml and compound No. 3 (structure given above) at 0.1 mg/ml concentration. The mixture was transferred to Pyrex glass photolysis cells and exposed to UV (300-360 nm blue lamp) for 5 minutes. After UV irradiation treatment the final viral titre and Factor VIII activity were measured as described earlier. […] About 3-6 logs of increased viral inactivation was obtained with protein coated viruses using a sensitizer. Only 10% of Factor VIII activity was recovered after viral inactivation treatment.
as §10

red cells = test: Red cell in vitro properties following UVA viral inactivation treatment; assay type: cell-based, human; details: 0.3 mg/mL
Protocol: Units of packed red cells were transferred to Stericon™ red cell freezing bags and the hematocrits were adjusted to 60% with PBS. The samples were spiked with 5×10^6 PFU/mL .phi.6 phage and 0.3 mg/mL sensitizer 8B. The contents of the bag was exposed to UVA light from top (3.6 mW/cm^2) and bottom (3.4 mW/cm^2) for 6 hours (151.2 J/cm^2). The samples were mixed continuously during UVA exposure on an orbital shaker. The final viral titer in the sample was determined by the plaque method. In vitro biochemical and biophysical properties of treated red cells were monitored for 7 day following the treatment.

[9] = tested on: Salmonella typhimurium TA1535; test: Ames mutagenicity plate incorporation assay, TA1535; assay type: cell-based; details: average of duplicate plates

CC[N+](CC)(CC)CCCOc1c2occc2c(Br)c2ccc(=O)oc12 [Sensitizer 8B]
Time Required for 6.0 logs V.I. (phi 6 phage [1]; UV Reactor 1, Top, 3.3 mW/cm^2, 0.1 mg/mL, n = 1): 16.4 Hours
Time Required for 6.0 logs V.I. (phi 6 phage [1]; UV Reactor 2, Top + Bottom, 3.6/3.4 mW/cm^2, 0.1 mg/mL, n = 9): 7.0 ± 1.2 Hours
Time Required for 6.0 logs V.I. (phi 6 phage [1]; UV Reactor 3, Top + Bottom, 40/40 mW/cm^2, 0.1 mg/mL, n = 3): 1.3 ± 0.4 Hours
fold improvement in the level of viral inactivation, brominated (8B) vs non-brominated (8C) (phi 6 bacteriophage; 0.1 mg/mL, UVA 3.3 mW/cm^2): ≤ 400 fold
log reduction at 30 µg/mL (phi 6 bacteriophage; read-out: V.I (log10)): 5.3
log reduction at 30 µg/mL (phi 6 bacteriophage; read-out: viral reduction): > 5.3
Number of Revertant Colonies ([2]; w/S-9): 26
Number of Revertant Colonies ([2]; without S-9): 36
Number of Revertant Colonies ([3]; w/S-9): 25
Number of Revertant Colonies ([3]; without S-9): 22
Number of Revertant Colonies ([4]; w/S-9): 83
Number of Revertant Colonies ([4]; without S-9): 55
Cell count (platelets [5]; 0 Hour): 474
Cell count (platelets [5]; 24 Hours): 499
Cell count (platelets [5]; 48 Hours): 506
ADP Agg. (platelets [6]): 26 ± 10
Number of Revertant Colonies ([7]; w/S-9): 245
Number of Revertant Colonies ([7]; without S-9): 164
log reduction at 30 µg/mL (phi 6 phage [8]): 6.5
Ames mutagenicity (salmonella mutants): non-mutagenic
pH (platelet concentrates; 0 Hour): 7.2
pH (platelet concentrates; 24 Hours): 7.1
pH (platelet concentrates; 48 Hours): 6.8
log reduction at 30 µg/mL (bacterial phage λ): 6.6
alterations in in vitro biochemical and biophysical properties (red cells; UVA 6 hours, in words): without any significant alterations in in vitro biochemical and biophysical properties
% Hemochrome (red cells; Treated, Day 1, UVA 6 hours): 1.9%
DI Max % control (deformability index) (red cells; Treated, Day 1, UVA 6 hours): 97.4 % control
MCV (red cells; Treated, Day 1, UVA 6 hours (151.2 J/cm^2)): 88.8
% Hemochrome (red cells; Treated, Day 2, UVA 6 hours): 0.6%
DI Max % control (deformability index) (red cells; Treated, Day 2, UVA 6 hours): 99.6 % control
% Hemochrome (red cells; Treated, Day 7, UVA 6 hours): 0.2%
DI Max % control (deformability index) (red cells; Treated, Day 7, UVA 6 hours): 99.0 % control
Number of Revertant Colonies ([9]; w/S-9): 197
Number of Revertant Colonies ([9]; without S-9): 173
